The subject of one assay is Ustilago maydis (USTIMA). Put plainly: microbe, parasite or virus in culture. The format is cell-based. To be noted: Mycosarcoma maydis, read-out: T12 USTIMA in vitro Growth Inhibition.
For assay [1], the system named is Rhizoctonia solani (RHIZSO). Put plainly: microbe, parasite or virus in culture. In kind it is cell-based. The note with it: read-out: T10 RHIZSO in vitro Growth Inhibition.
In assay [2] the test system is Puccinia recondita (PUCCRT). Put plainly: Brown Rust of Wheat, whole plant 24 Hour Protectant (T5). To be noted: read-out: T5 PUCCRT in vivo 1 Day Protectant, control of fungal infection.
Assay [3] relates to Phytophthora infestans (PHYTIN). The assay can be described thus: microbe, parasite or virus in culture. The format is cell-based. The note with it: in Secale cereale, read-out: T8 PHYTIN in vitro Growth Inhibition.
In assay [4] the test system is Leptosphaeria nodorum (LEPTNO). Put plainly: Glume Blotch of Wheat, whole plant 24 Hour Protectant (T2). To be noted: Parastagonospora nodorum, read-out: T2 LEPTNO in vivo 1 Day Protectant, control of fungal infection.
In assay [5] the test system is Stagonospora nodorum (Leptosphaeria nodorum, LEPTNO). The assay can be described thus: microbe, parasite or virus in culture. In kind it is cell-based. The note with it: Parastagonospora nodorum, read-out: T7 LEPTNO in vitro Growth Inhibition.
The subject of assay [6] is Phytophthora infestans (PHYTIN). Put plainly: whole plant or invertebrate. To be noted: in Solanum lycopersicum, 24 h, read-out: T3 PHYTIN in vivo 1 Day Protectant, control of fungal infection.
The subject of assay [7] is Magnaporthe grisea (Pyricularia oryzae, PYRIOR). The assay can be described thus: microbe, parasite or virus in culture. The format is cell-based. To be noted: read-out: T9 PYRIOR in vitro Growth Inhibition.
Assay [8] has as its system Mycosphaerella graminicola (Septoria tritici, SEPTTR). Put plainly: microbe, parasite or virus in culture. In kind it is cell-based. To be noted: Zymoseptoria tritici, read-out: T11 SEPTTR in vitro Growth Inhibition.
The test system of assay [9] is Erysiphe graminis (ERYSGT). Put plainly: Powdery Mildew of Wheat, whole plant 24 Hour Protectant (T1). To be noted: Blumeria graminis, in Triticum aestivum, read-out: T1 ERYSGT in vivo 1 Day Protectant, control of fungal infection.
Assay [10] concerns Septoria tritici (SEPTTR). The assay can be described thus: Leaf Blotch of Wheat, whole plant 24 Hour Protectant (T6). To be noted: Zymoseptoria tritici; wheat (cultivar Monon), sprayed at 100 ppm, inoculated after 24 hours; read-out: T6 SEPTTR in vivo 1 Day Protectant, control of fungal infection.
Setting [11] is: wheat (cultivar Yuma), sprayed at 100 ppm, inoculated after 24 hours.

These results are taken from patent US6861390B2, “Derivatives of UK-2A” (priority 2001, dated 2005).

Like-named read-outs stand apart in the source and are kept apart here.

In general, inhibition refers to the change of the read-out against control, counted positive when it falls.

As for `CCCOCOc1c(OC)ccnc1C(=O)N[C@H]1COC(=O)[C@H](Cc2ccccc2)[C@@H](OC(=O)C(C)C)[C@H](C)OC1=O` [Compound 6], the inhibition at 25 ppm with Ustilago maydis (USTIMA) is less than 80%; in assay [1] it was less than 80%; in assay [3], less than 80%; in assay [5], greater than 80%; in assay [7], less than 80%; in assay [8] it was less than 80%. Further, the pest or weed control at 100 ppm was 75 to 100% in assay [2] (setting [11]), 75 to 100% in assay [4] (setting [11]), less than 25% in [6] and 25 to 74% in assay [9].
For `COc1ccnc(C(=O)N[C@H]2COC(=O)[C@H](Cc3ccccc3)[C@@H](OC(=O)C(C)C)[C@H](C)OC2=O)c1OCOC(C)(C)C` [Compound 8], the inhibition at 25 ppm is greater than 80% with Ustilago maydis (USTIMA); less than 80% in assay [1]; less than 80% in [3]; greater than 80% in [5]; less than 80% in assay [7]; less than 80% in assay [8]. Besides, the pest or weed control at 100 ppm in [2] (setting [11]) was 75 to 100%; in [10], 75 to 100%; in [4] (setting [11]), 75 to 100%; in assay [6], less than 25%; in assay [9] it was less than 25%.
Consider `COCCOCOc1c(OC)ccnc1C(=O)N[C@H]1COC(=O)[C@H](Cc2ccccc2)[C@@H](OC(=O)C(C)C)[C@H](C)OC1=O` [Compound 11], for which the pest or weed control at 100 ppm in [2] (setting [11]) is 75 to 100%; in [4] (setting [11]), 75 to 100%; in assay [6], less than 25%; in [9] it was 25 to 74%.
Consider `COc1ccnc(C(=O)N[C@H]2COC(=O)[C@H](Cc3ccccc3)[C@@H](OC(=O)C(C)C)[C@H](C)OC2=O)c1OC(C)OC` (some centres unmarked) [Compound 16], for which the inhibition at 25 ppm with Ustilago maydis (USTIMA) was less than 80%; in [1] it was less than 80%; in assay [3] it was less than 80%; in [5], greater than 80%; in [7], greater than 80%; in assay [8] it was greater than 80%. The pest or weed control at 100 ppm was 75 to 100% in assay [4] (setting [11]), less than 25% in [6] and less than 25% in assay [9].
For `COc1ccnc(C(=O)N[C@H]2COC(=O)[C@H](Cc3ccccc3)[C@@H](OC(=O)C(C)C)[C@H](C)OC2=O)c1OCOC(=O)C(C)C` [Compound 23], the inhibition at 25 ppm in the assay with Ustilago maydis (USTIMA) is greater than 80%; in [1], less than 80%; in assay [3], less than 80%; in assay [5], greater than 80%; in [7] it was less than 80%; in assay [8] it was less than 80%. Moreover, the pest or weed control at 100 ppm is 75 to 100% in assay [2] (24 h), 75 to 100% in [4] (24 h), less than 25% in assay [6] and 25 to 74% in [9].
On to `COc1ccnc(C(=O)N[C@H]2COC(=O)[C@H](Cc3ccccc3)[C@@H](OC(=O)C(C)C)[C@H](C)OC2=O)c1OCOC(=O)OC(C)C` [Compound 47], for which the pest or weed control at 100 ppm in [2] (setting [11]) was 75 to 100%; in assay [4] (setting [11]), 75 to 100%; in assay [6], less than 25%; in assay [9] it was less than 25%.
`C=CCO[C@H]1[C@H](C)OC(=O)[C@@H](NC(=O)c2nccc(OC)c2OCOC(C)=O)COC(=O)[C@@H]1Cc1ccccc1` [Compound 52]: the inhibition at 25 ppm in the assay on Ustilago maydis (USTIMA) was less than 80%; in assay [1], greater than 80%; in assay [3], less than 80%; in assay [5], greater than 80%; in assay [7], greater than 80%; in assay [8], greater than 80%. The pest or weed control at 100 ppm in assay [2] (setting [11]) was 75 to 100%; in assay [4] (setting [11]) it was 75 to 100%; in assay [6], less than 25%; in assay [9], less than 25%.
Regarding `COc1ccnc(C(=O)N[C@H]2COC(=O)[C@H](Cc3ccccc3)[C@@H](OCC(C)C)[C@H](C)OC2=O)c1OCOCC(C)C` [Compound 65], the pest or weed control at 100 ppm in assay [2] (setting [11]) was 75 to 100%; in assay [10], 75 to 100%; in assay [4] (setting [11]) it was 75 to 100%; in assay [6], less than 25%; in assay [9], less than 25%.
`COCCOC(C)C(=O)OCOc1c(OC)ccnc1C(=O)N[C@H]1COC(=O)[C@H](Cc2ccccc2)[C@@H](OC(=O)C(C)C)[C@H](C)OC1=O` (some centres unmarked) [Compound 66]: the inhibition at 25 ppm (with Ustilago maydis (USTIMA); in [1]; in assay [3]; in [5]; in [7]; in [8]) was less than 80% each time. Also, the results for the pest or weed control at 100 ppm in assay [2] (setting [11]), in [4] (setting [11]) and in assay [6] were 75 to 100%, 75 to 100% and less than 25%, respectively.
`COc1ccnc(C(=O)N[C@H]2COC(=O)[C@H](Cc3ccccc3)[C@@H](OC(=O)C(C)C)[C@H](C)OC2=O)c1OCOC(=O)C(C)OC` (some centres unmarked) [Compound 67]: the inhibition at 25 ppm with Ustilago maydis (USTIMA) was greater than 80%; in assay [1] it was less than 80%; in assay [3], less than 80%; in assay [5], less than 80%; in assay [7], less than 80%; in [8], less than 80%. Besides, the pest or weed control at 100 ppm in [2] (setting [11]) was 75 to 100%; in [4] (setting [11]) it was 75 to 100%; in assay [6] it was less than 25%.
On to `CCOC(C)C(=O)OCOc1c(OC)ccnc1C(=O)N[C@H]1COC(=O)[C@H](Cc2ccccc2)[C@@H](OC(=O)C(C)C)[C@H](C)OC1=O` (some centres unmarked) [Compound 68], for which the inhibition at 25 ppm in the assay on Ustilago maydis (USTIMA) was greater than 80%; in assay [1], greater than 80%; in [3] it was less than 80%; in assay [5], greater than 80%; in assay [7] it was less than 80%; in assay [8], greater than 80%. In addition, the pest or weed control at 100 ppm is 75 to 100% in assay [2] (setting [11]), 75 to 100% in assay [4] (setting [11]) and less than 25% in [6].
Take `CCCOC(C)C(=O)OCOc1c(OC)ccnc1C(=O)N[C@H]1COC(=O)[C@H](Cc2ccccc2)[C@@H](OC(=O)C(C)C)[C@H](C)OC1=O` (some centres unmarked) [Compound 69]: the inhibition at 25 ppm with Ustilago maydis (USTIMA) is greater than 80%; in assay [1], greater than 80%; in [3], less than 80%; in assay [5] it was greater than 80%; in assay [7], greater than 80%; in [8] it was greater than 80%. Moreover, the pest or weed control at 100 ppm was 75 to 100% in [2] (setting [11]), 75 to 100% in assay [4] (setting [11]) and less than 25% in assay [6].
Consider `COc1ccnc(C(=O)N[C@H]2COC(=O)[C@H](Cc3ccccc3)[C@@H](OC(=O)C(C)C)[C@H](C)OC2=O)c1OCOC(=O)COCC(F)(F)F` [Compound 70], for which the inhibition at 25 ppm in the assay with Ustilago maydis (USTIMA) was greater than 80%; in [1] it was less than 80%; in assay [3], less than 80%; in assay [5], greater than 80%; in assay [7], less than 80%; in [8], less than 80%. Moreover, the pest or weed control at 100 ppm in assay [2] (setting [11]) was 75 to 100%; in assay [4] (setting [11]) it was 75 to 100%; in [6] it was less than 25%.
`COc1ccnc(C(=O)N[C@H]2COC(=O)[C@H](Cc3ccccc3)[C@@H](OC)[C@H](C)OC2=O)c1OCOC(C)=O` [Compound 71]: the inhibition at 25 ppm with Ustilago maydis (USTIMA) is greater than 80%; in [1], less than 80%; in [3], less than 80%; in assay [5], greater than 80%; in assay [7], greater than 80%; in assay [8] it was greater than 80%.
Consider `COCCOCCOCC(=O)OCOc1c(OC)ccnc1C(=O)N[C@H]1COC(=O)[C@H](Cc2ccccc2)[C@@H](OC(=O)C(C)C)[C@H](C)OC1=O` [Compound 75], for which the inhibition at 25 ppm was greater than 80% with Ustilago maydis (USTIMA); less than 80% in assay [1]; less than 80% in assay [3]; greater than 80% in [5]; greater than 80% in assay [7]; greater than 80% in assay [8]. Also, the pest or weed control at 100 ppm in assay [6] was less than 25%; in assay [9] it was 75 to 100%.
